Among the data in BindingDB's records for doi:10.1021/jm034182u (Virginia Commonwealth University, 2004) are IC50 values, retold here.

Usually IC50 stands for the concentration at which inhibition is half-maximal. Read a low IC50 as greater potency.

For this test, the target named is E3 ubiquitin-protein ligase Mdm2 (Homo sapiens, UniProt Q00987). Nature of the test: ELISA-Based p53-MDM2 Binding Assay. The following applies: pH 7.6; 37 °C. As for the experimental part:
ELISA plates were coated with equivalent amounts of either glutathione S-transferase (GST) protein or GST-MDM2 (1-188) fusion protein and incubated on a microtiter plate shaker overnight at 4 deg C. After washing the wells five times with PBS containing 0.2 M NaCl, the plates were incubated at 37 deg C with blocking solution (PBS containing 5% nonfat dry milk) for 2 hours. After the plates were washed five times, the GST-p53 was added, and the plates were incubated for an additional 30 minutes at 37 deg C. After another washing step, the plates were incubated with the anti-p53 monoclonal pAb421 (Oncogene Science, Inc.) in blocking solution for 1 hour at 37 deg C. The plates were again washed five times and incubated for 1 hour at 37 deg C with a goat anti-mouse IgG alkaline phosphatase conjugate (Promega, Inc.). Excess antibody was removed with 15 washes, the wells were filled with PBS, and the absorbance at 405 nm was read to establish background readings for the wells. […] Finally, the A405 was measured with a microplate spectrophotometer (Molecular Devices, Inc.). […] Absorbance values were normalized by subtraction of equivalent GST-seeded well values from their GST-mdm2 (1-188)-seeded neighbors. IC50 values were determined by fitting data to a three-parameter sigmoidal dose-response function.
For orientation: ELISA stands for enzyme-linked immunosorbent assay.

Sequence of E3 ubiquitin-protein ligase Mdm2 (Q00987 whole entry, the tested form may be a part): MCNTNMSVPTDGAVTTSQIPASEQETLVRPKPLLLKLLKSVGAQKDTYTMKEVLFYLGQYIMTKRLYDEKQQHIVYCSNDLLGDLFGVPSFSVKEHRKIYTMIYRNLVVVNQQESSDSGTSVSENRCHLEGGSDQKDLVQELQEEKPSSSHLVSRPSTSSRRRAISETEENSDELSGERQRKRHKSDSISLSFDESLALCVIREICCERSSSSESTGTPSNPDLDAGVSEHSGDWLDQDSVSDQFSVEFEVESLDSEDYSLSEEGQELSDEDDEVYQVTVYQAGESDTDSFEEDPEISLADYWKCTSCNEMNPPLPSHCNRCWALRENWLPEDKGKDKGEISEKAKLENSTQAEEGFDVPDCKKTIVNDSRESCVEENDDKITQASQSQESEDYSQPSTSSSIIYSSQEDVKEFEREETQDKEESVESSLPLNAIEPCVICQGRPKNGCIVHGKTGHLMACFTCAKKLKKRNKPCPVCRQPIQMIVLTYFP

As to `CC(C)Oc1ccc(C(=O)NS(=O)(=O)c2ccc(N=Nc3c(O)n(-c4ccccc4)n(-c4ccccc4)c3=O)cc2)cc1`, the IC50 came out at 31.8 µM.
